From patent publication US20160271251A1, “RADIOLUMINESCENT COMPOUND FOR RADIOTHERAPY AND DEEP PHOTODYNAMIC THERAPY AND DEVICE FOR DEEP PHOTODYNAMIC THERAPY” (SYNCHROTRON SOLEIL, priority 2013, published 2016)

Legend:
[1] = UV-visible absorption spectrum of photosensitiser; assay type: physicochemical
Text: (§1) For the acquisition of these spectra, the two molecules are mixed in the same aqueous solvent. The energy of the X-ray radiation is generally comprised between 1 and 20 keV and selected so as to be higher than an absorption threshold of the radioluminescent molecule, so that the radioluminescent molecule absorbs the X-ray radiation of energy and emits a luminescence radiation in the visible domain.

[2] = X-ray-excited luminescence (radioluminescence) spectrum; assay type: physicochemical; settings: for emission band of X-ray-excited luminescence: c=177 mM
Text: as §1

## [Al].c1ccc2c(c1)-c1nc-2nc2[nH]c(nc3nc(nc4[nH]c(n1)c1ccccc41)-c1ccccc1-3)c1ccccc21 [Al(III)Phthalocyanine]
[1]; aqueous medium, c=4 μM
  absorption band superimposed with CeCl3 emission: around 350 nm

## [Cl][Ce]([Cl])[Cl] [CeCl3, cerium chloride]
[2]; PBS pH=7.4
  emission band of X-ray-excited luminescence: 300-400 nm
[2]; PEG:EtOH:H2O 3:2:5 v/v, X-ray 1-20 keV
  emission band of X-ray-excited luminescence: 300-400 nm

## [Cl][Eu]([Cl])[Cl] [EuCl3, europium chloride]
[2]; DMSO medium (FIG. 7)
  most intense of the three peaks observed: 700 nm
[2]; aqueous medium (FIG. 2)
  most intense of the three peaks observed: 600 nm

## [Cl][Gd]([Cl])[Cl] [GdCl3, gadolinium chloride]
[2]; DMSO medium, EuCl3 c=96 mM, GdCl3 c=199 mM
  emission bands/peak of X-ray-excited luminescence: around 320 nm

## Oc1cccc(-c2c3nc(c(-c4cccc(O)c4)c4ccc([nH]4)c(-c4cccc(O)c4)c4nc(c(-c5cccc(O)c5)c5ccc2[nH]5)CC4)C=C3)c1 [mTHPC, meta-tetrahydroxyphenylchlorine]
[1]; PEG:EtOH:H2O 3:2:5 v/v, c=0.49 μM
  most intense absorption band: around 400 nm

## chlorine e6
[1]; PBS pH=7.4, c=0.8 μM
  most intense absorption band: around 400 nm
